Experimental data published in patent US20250073194A1, “RXR AGONISTS IN EYE DISORDERS” (Baylor College of Medicine, priority 2022, published 2025).
“Also recorded” adds a separate entry of the source.

Assays:
γδ T cells [1] = test: IL-17A/F in supernatants of stimulated cultured γδ T cells (ELISA); format: cell-based, mouse; settings: for effect on IL-17A/F cytokine concentration in supernatants: C57BL/6 spleen γδ T cells, anti-CD3/CD28 beads plus recombinant IL-23, 10 and 100 nM (FIG. 12); for suppressive effect on supernatant IL-17 concentration: bead+IL-23 stimulated, 100 nM 9-cis RA, 96 hours
Experimental: (§1) Pooled γ/δ T17 cells from the spleens of 8-10 week old B6 and Pinkie mice were isolated using the TCR γ/δ T cells Isolation Kit according to the manufacturer's instruction (Miltenyi Biotec, Bergisch Gladbach, Germany). To determine the effect of 9CisRA and monocytes conditional media on IL17 cytokine production, the purified γδ T17 cells were stimulated with anti-CD3/CD28 Dynabeads (Catalog #11452D, Life Technologies AS, Norway) alone or in combination with IL-23 (10 ng/ml, eBioscience), 9-cisRA (100 nM) or monocyte conditioned media for 96 hours for cytokine measurement.
(§2) Mouse IL17 was measured from cell cultured supernatant after 96 hours incubation using a mouse IL-17 DuoSet Enzyme-linked immunosorbent assay (ELISA) (R&D systems, Minneapolis, USA)

γδ T cells [2] = settings: stimulated with anti-CD28 antibody and cytokine cocktail of IL-23 and IL-1; cited from earlier work
monocytes [3] = test: Stimulatory activity of conditioned media from LPS-treated monocytes on IL-17 production by γδ T cells; format: cell-based, mouse; settings: LPS-stimulated cultured monocytes treated with 100 nM 9-cisRA
Experimental: (§3) Monocytes were purified from 3 days cultured mouse bone marrow cells using the monocytes isolation kit, according to the manufacturer's instruction (BM, Miltenyi Biotec, Bergisch Gladbach, Germany). 5×10^5 monocytes plated in a 48 well plate were preincubated with 100 nM 9-cisRA for 1 hour followed by stimulation with 0.5 μg/ml LPS for 4 hours for RNA or overnight for cytokines. The total RNA was extracted using an RNeasy® Plus Mimi Kit (Cat No. 74134, QIAGEN GmbH, Hilden, Germany) according to manufacturer's instruction. The RNA and collected supernatants were stored at −80° C. until further use.
as §1, §2

monocytes [4] = test: Nanostring myeloid innate immunity array of LPS-stimulated cultured monocytes; format: cell-based, mouse; settings: 100 nM 9-cis RA added to culture media
Experimental: as §3
This was performed by the Genomic and RNA Profiling Core at Baylor College of Medicine using the NanoString Technologies nCounter Gene Expression Mouse Myeloid Innate Immunity V2 Panel codeset (NS_MM_Myeloid_V2.0) containing 770 unique pairs of 35-50 bp reporter probes and biotin-labeled capture probes, including internal reference controls (NanoString, Seattle, WA) as previously described. (Alam et al., 2021a). Data was analyzed by ROSALIND® (https://rosalind.bio/), with a HyperScale architecture developed by ROSALIND, Inc. (San Diego, CA).

monocytes [5] = settings: 9-cis RA treated monocytes; cited from earlier work

Structure (SMILES): CCCCCCCC/C=C\CCCCCCCC(=O)O [oleic acid]
- effect on IL-17A/F cytokine concentration in supernatants (γδ T cells [1]): suppressive effects

Structure (SMILES): CC1(C)CCC(C)(C)c2cc(NC(=O)c3ccc(C(=O)O)cc3)ccc21 [AM80]
- IL-17 production by γδ T cells (γδ T cells [2]): suppress

Structure (SMILES): CN1c2ccc([N+](=O)[O-])cc2N=C(c2ccc(C(=O)O)cc2)c2cc3c(cc21)C(C)(C)CCC3(C)C [HX531]
- effect on suppressive activity of the RAR agonist ATRA on IL-17A/F (γδ T cells [1]; C57BL/6 γδ T cells, anti-CD3/CD28 beads plus IL-23 (FIG. 12)): did not have any effect
- effect on the suppressive effects of RXRα agonists on IL-17A/F (γδ T cells [1]; C57BL/6 γδ T cells, anti-CD3/CD28 beads plus IL-23, with 9-cisRA, Bexarotene, DHA, oleic acid, honokiol (FIG. 12)): blocked

Structure (SMILES): CC1=C(/C=C/C(C)=C\C=C\C(C)=C\C(=O)O)C(C)(C)CCC1 [9-cis RA, 9-cis retinoic acid]
- suppressive effect on supernatant IL-17 concentration (γδ T cells [1]; B6 γδ T cells): 74%
- effect on IL-17A/F cytokine concentration in supernatants (γδ T cells [1]): suppressive effects
- suppressive effect on supernatant IL-17 concentration (γδ T cells [1]; Pinkie γδ T cells): 46%
- suppression of IL-17 production (γδ T cells [1]; cultured γδ T cells stimulated by CD28 beads or beads plus IL-23): > 70%
- supernatant IL-17 concentration (γδ T cells [1]; stimulated γδ T cells from both strains (B6 and Pinkie), 100 nM): suppresses; also recorded: significantly reduced
- stimulatory activity of monocyte conditioned media on γδ T cell IL-17 production (monocytes [3]): suppresses; also recorded: significantly reduced
- stimulatory activity of monocyte conditioned media on γδ T cell IL-17 production (monocytes [3]; listed as 9-cisRA): significantly reduced
- expression of γδT17 inducing cytokines (Il23a, Il12b, Il1α, Il1β, Tnf-α) (monocytes [4]): suppressed; also recorded: reduced
- expression of γδT17 inducing cytokines (Il23a, Il12b, Il1α, Il1β, Tnf-α) (monocytes [4]; listed as 9-cisRA): suppresses
- levels of IL-1β and IL-23β in supernatants (monocytes [5]): reduced levels

Structure (SMILES): CC/C=C\C/C=C\C/C=C\C/C=C\C/C=C\C/C=C\CCC(=O)O [DHA, omega-3 docosahexaenoic acid]
- effect on IL-17A/F cytokine concentration in supernatants (γδ T cells [1]): suppressive effects

Structure (SMILES): CC1=C(/C=C/C(C)=C/C=C/C(C)=C/C(=O)O)C(C)(C)CCC1 [all trans retinoic acid]
- effect on IL-17A/F cytokine concentration in supernatants (γδ T cells [1]): suppressive activity

Structure (SMILES): C=CCc1ccc(O)c(-c2ccc(O)c(CC=C)c2)c1 [honokiol]
- effect on IL-17A/F cytokine concentration in supernatants (γδ T cells [1]): suppressive effects

Structure (SMILES): C=C(c1ccc(C(=O)O)cc1)c1cc2c(cc1C)C(C)(C)CCC2(C)C [Bexarotene]
- effect on IL-17A/F cytokine concentration in supernatants (γδ T cells [1]): suppressive effects
